In series [1] the test system is Leishmania donovani. As to the kind of experiment: Antileishmanial activity against Leishmania donovani infected in mouse model of visceral leishmaniasis assessed as reduction in parasite load. Type of series: functional. Details: scale not given: the % may be the effect or the level left.
Series [2] concerns Leishmania donovani. As to the kind of experiment: Antileishmanial activity against Leishmania donovani. Type of series: functional, organism-based.
Series [3] is described as follows: Cytotoxicity against human THP-1 cells. Type of series: toxicity, cell-based.
The test system of series [4] is Leishmania donovani. Kind of series: Antileishmanial activity against Leishmania donovani infected in mouse model of visceral leishmaniasis assessed as reduction in parasite load at 25 mg/kg, po administered for 10 days. Type of series: functional. Details: scale not given: the % may be the effect or the level left. Conditions: time 10 day.

Bounds are passed on as bounds.

Regarding `O=C(Nc1ccc(F)c(-c2ccn3c(N4CCOCC4)cnc3n2)c1)N1CCCC1` [GSK-3494245], in the series with Leishmania donovani [1], the Activity stood at 95%.

The EC50 is the concentration needed to bring the measured effect to its halfway point. Regarding `C[C@H]1CN(c2n[nH]c3nc(N[C@H]4CC[C@H](NS(=O)(=O)CCC(F)(F)F)CC4)ncc23)CCO1` [GSK-3186899], the EC50 in the series with Leishmania donovani [2] is 1400 nM; in series [3], greater than 50000 nM. Also, the Activity in the series on Leishmania donovani [4] is 99%.

Take `NC[C@@H]1O[C@H](O[C@H]2[C@@H](O)[C@H](O[C@@H]3[C@@H](O)[C@H](N)C[C@H](N)[C@H]3O[C@H]3O[C@H](CO)[C@@H](O)[C@H](O)[C@H]3N)O[C@@H]2CO)[C@H](N)[C@@H](O)[C@@H]1O` [PAROMOMYCIN]: a half-maximal response with Leishmania donovani [2] (EC50) required 6600 nM.

For the compound `CCCCCCCCCCCCCCCCOP(=O)([O-])OCC[N+](C)(C)C` [MILTEFOSINE], the EC50 with Leishmania donovani [2] was found to be 900 nM.

The values are drawn from ChEMBL document CHEMBL5241117, “Current leishmaniasis drug discovery” (RSC Med Chem, 2022).
